# Target: T1, hmGluR4 (Homo sapiens, UniProt Q14833)
# T1 construct: host or cells: HEK293T
# Experiment: HEK-293 mGluR4 cells cAMP assay with EC20 L-Glutamate (HTRF)
# Type: cell-based
# Conditions: not given
# Experimental: II. Biological Assays HEK-293 mGluR4 Cells cAMP Assay with EC20 L-Glutamate
# Using mGluR4 suspension cell format, 10 μM Forskolin (final conc.) used to induce the production of cAMP.
# Test the positive allosteric activity of the compounds of the invention at EC20 (2.3 μM for mGluR4 and 4.3 μM for mGluR6) L-Glutamate,
# cAMP dymanic2 kit is intended for the direct quantitative determination of cAMP and its principle is based on HTRF technology.
# • Cells: HEK293T mGluR4 cells from Multispan, cat# C1191a lot# C1191a-040910 • Culture Media: DMEM+GlutaMAX1+10% dialyzed FBS, 100 mM Sodium Pyruvate, 1 ug/ml puromycin. • Glutamine Starvation Media: DMEM without GlutaMax for plating the cells (glutamine starvation overnight). DMEM high Glucose, without phenol red, glutamine, or sodium pyruvate+10% dialyzed FBS, 100 mM Sodium Pyruvate, 1 ug/ml puromycin, 10 mM Hepes. • Hanks' balanced Salt Solution, HBSS from Invitrogen • Greiner 384 well white low volume high base plate (784075) • cAMP dynamic2 from Cisbio Bioassays • Glutamate: L-Glutamaic acid, monosodium salt, Monohydrate, 98%, from Sigma-Aldrich • Cell Preparation: split cells at 80%-90% confluence. The following day, rinse the cells with DMEM without GlutaMax and change to Glutamine Starvation Media. Incubate overnight. Assay: • Prepare compound plate: Perform compound serial dilution (uses Matrix 4341 plate), using the Bravo liquid handling platform protocol (compound serial dilution) which adds DMSO to columns 1-24 (except cols. 3 and 13). Serial dilute compounds located in columns 3 and 13 at a 1:3 ratio; 10 points (10 ul of 3 mM compound into 20 ul DMSO). Use the Bravo liquid handling platform to transfer 1 ul from the serial dilution plate into Matrix 4314 plate to create stamp plates. Prepare Compound Dilution Buffer: • Dilute 20 mM Forskolin (in DMSO) stock solution in HBSS buffer to make a 20 uM solution (forskolin buffer; 2× solution). To the forskolin buffer, add glutamate to a concentration of 8 uM (compound dilution buffer; 2× EC20 glutamate and forskolin). • Using a multidrop, add 50 ul/well of compound dilution buffer to columns 1-22 of the 2 ul compound stamp plate. Columns 23 and 24 receive forskolin buffer containing 400 uM glutamate (EC100 glutamate; 2× solution). Columns 1 and 2 receive compound dilution buffer containing EC20 glutamate, which is the basal control. • Add a glutamate dose response to row P of compound plate. Prepare the dose response by serial diluting glutamate at a 1:3 ratio in forskolin buffer starting at 2 mM glutamate (2×). Dilute the glutamate 9 times and transfer to compound plate. Prepare Cell Plates: • Harvest cells: Rinse cells with pre-warmed HBSS-10 mM HEPES (without Ca Mg) and dissociate the cells from the flask with versene. Centrifuge the cells, remove the supernatant and suspend in pre-warmed HBSS+10 mM Hepes. Count the cells and centrifuge. Remove the supernatant and suspend the cells in HBSS+Hepes (with Ca Mg) at a density of 400,000 cells/ml. Perform Assay: • Dispense 5 ul from the diluted compound plate into Greiner low volume cell plate using the Bravo liquid handling platform. Using a Multidrop with the small tubing cassette, dispense 5 ul of cells (2000 cells/well) onto the compounds contained in the low volume plates. Incubate the cells at 37° C., 5% CO2 for 30 minutes in the incubator. Assay for cAMP: • Prepare cAMP-d2 and anti-cAMP-Crytate according to the instructions for the two step assay (see Cisbio manual) and add 10 ul of the mixed reagent to each well of the assay plate using the Multidrop. Incubate at room temperature for 60 minutes and read on the Envision plate reader using the mGluR low volume cAMP HTRF 384 well protocol.
# T1 sequence (Q14833 33-912): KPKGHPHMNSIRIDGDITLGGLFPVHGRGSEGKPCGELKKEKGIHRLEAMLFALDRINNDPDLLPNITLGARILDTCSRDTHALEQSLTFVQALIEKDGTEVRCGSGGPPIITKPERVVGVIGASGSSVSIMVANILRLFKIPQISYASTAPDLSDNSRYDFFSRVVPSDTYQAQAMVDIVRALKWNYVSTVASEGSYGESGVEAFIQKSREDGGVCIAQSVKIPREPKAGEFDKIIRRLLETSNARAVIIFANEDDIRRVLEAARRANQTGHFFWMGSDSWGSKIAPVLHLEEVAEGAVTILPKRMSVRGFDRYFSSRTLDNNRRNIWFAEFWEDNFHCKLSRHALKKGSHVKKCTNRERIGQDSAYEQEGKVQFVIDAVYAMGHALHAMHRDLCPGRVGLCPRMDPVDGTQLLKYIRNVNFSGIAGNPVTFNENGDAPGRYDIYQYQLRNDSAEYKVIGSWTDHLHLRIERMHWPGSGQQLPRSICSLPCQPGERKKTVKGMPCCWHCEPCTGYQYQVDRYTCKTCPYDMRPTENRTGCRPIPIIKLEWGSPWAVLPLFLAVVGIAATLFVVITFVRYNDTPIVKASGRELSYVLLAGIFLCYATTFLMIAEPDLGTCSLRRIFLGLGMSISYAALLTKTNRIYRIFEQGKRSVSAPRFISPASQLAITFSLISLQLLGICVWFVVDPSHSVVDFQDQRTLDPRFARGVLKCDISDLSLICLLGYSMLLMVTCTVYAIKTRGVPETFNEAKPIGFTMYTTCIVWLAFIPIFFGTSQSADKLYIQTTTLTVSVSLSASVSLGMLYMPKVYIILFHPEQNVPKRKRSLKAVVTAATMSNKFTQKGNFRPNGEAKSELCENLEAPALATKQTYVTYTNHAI
row,Structure (SMILES),EC50 [nM]
1,"COc1ccc(N2C(=O)c3ccccc3CC23CCN(Cc2ccc(F)c(F)c2)CC3)cc1 [Compound 126, 1′-(3,4-difluorobenzyl)-2-(4-methoxyphenyl)-2,4-dihydro-1H-spiro[isoquinoline-3,4′-piperidin]-1-one]",1000 to 10000

# Same assay, conditions: positive allosteric activity at EC20 L-Glutamate, 10 μM Forskolin, HEK293T mGluR4 cells, cAMP HTRF; read-out: hrmGluR4/HEK293T-hmGluR4 (EC50)
row,Structure (SMILES),EC50 [nM]
1,"O=C1c2ccc(F)cc2NC2(CN(C(c3ccc(F)c(F)c3)C(F)(F)F)C2)N1c1ccc(OC(F)(F)F)cc1 (stereo not drawn) [Compound 78, 1-(1-(3,4-Difluorophenyl)-2,2,2-trifluoroethyl)-7′-fluoro-3′-(4-(trifluoromethoxy)phenyl)-1′H-spiro[azetidine-3,2′-quinazolin]-4′(3′H)-one]",1000 to 10000
2,"CCOC(=O)c1ccc2c(c1)NC1(CCN(Cc3ccc(F)c(F)c3)CC1)N(c1ccc(OC(F)(F)F)cc1)C2=O [Compound 29, Ethyl 1-(3,4-difluorobenzyl)-4′-oxo-3′-(4-(trifluoromethoxy)phenyl)-3′,4′-dihydro-1′H-spiro[piperidine-4,2′-quinazoline]-7′-carboxylate]",< 1000
3,"COc1ccc(N2C(=O)c3ccc(Cl)cc3NC23CCN(Cc2ccccc2Cl)CC3)cc1 [Compound 62, 7′-Chloro-1-(2-chlorobenzyl)-3′-(4-methoxyphenyl)-1′H-spiro[piperidine-4,2′-quinazolin]-4′(3′H)-one]",< 1000
4,"COc1ccc(N2C(=O)c3ccccc3NC23CCN(Cc2ccc(Cl)c(Cl)c2)CC3)cc1 [Compound 54, 1-(3,4-Dichlorobenzyl)-3′-(4-methoxyphenyl)-1′H-spiro[piperidine-4,2′-quinazolin]-4′(3′H)-one]",< 1000
5,"O=C(OCC1CC1)c1ccc2c(c1)NC1(CCN(Cc3ccc(F)c(F)c3)CC1)N(c1ccc(OC(F)(F)F)cc1)C2=O [Compound 58, Cyclopropylmethyl 1-(3,4-difluorobenzyl)-4′-oxo-3′-(4-(trifluoromethoxy)phenyl)-3′,4′-dihydro-1′H-spiro[piperidine-4,2′-quinazoline]-7′-carboxylate]",< 1000
6,"CCC(c1ccccc1)N1CCC2(CC1)Nc1cc(Br)ccc1C(=O)N2c1ccc(OC(F)(F)F)cc1 (stereo not drawn) [Compound 48, 7′-Bromo-1-(1-phenylpropyl)-3′-(4-(trifluoromethoxy)phenyl)-1′H-spiro[piperidine-4,2′-quinazolin]-4′(3′H)-one]",< 1000
7,"O=C1c2ccc(C(F)(F)F)cc2NC2(CCN(Cc3ccc(F)c(F)c3)CC2)N1c1ccc(OC(F)(F)F)cc1 [Compound 16, 1-(3,4-Difluorobenzyl)-3′-(4-(trifluoromethoxy)phenyl)-7′-(trifluoromethyl)-1′H-spiro[piperidine-4,2′-quinazolin]-4′(3′H)-one]",< 1000
8,"O=C1c2ccc(Br)cc2NC2(CCN(Cc3ccccc3OC(F)(F)F)CC2)N1c1ccc(OC(F)(F)F)cc1 [Compound 46, 7′-Bromo-1-(2-(trifluoromethoxy)benzyl)-3′-(4-(trifluoromethoxy)phenyl)-1′H-spiro[piperidine-4,2′-quinazolin]-4′(3′H)-one]",< 1000
9,"COc1ccc(N2C(=O)c3ccc(N4CCCCC4)cc3NC23CCN(Cc2ccc(F)c(F)c2)CC3)cc1 [Compound 83, 1-(3,4-Difluorobenzyl)-3′-(4-methoxyphenyl)-7′-(piperidin-1-yl)-1′H-spiro[piperidine-4,2′-quinazolin]-4′(3′H)-one]",1000 to 10000
10,"O=C1c2ccc(F)cc2CC2(CCN(Cc3ccc(F)c(F)c3)CC2)N1c1ccc(OC(F)(F)F)cc1 [Compound 127, 1′-(3,4-difluorobenzyl)-6-fluoro-2-(4-(trifluoromethoxy)phenyl)-2,4-dihydro-1H-spiro[isoquinoline-3,4′-piperidin]-1-one]",1000 to 10000
11,"O=C1c2ccc(Br)cc2NC2(CCN(Cc3cccc4ncccc34)CC2)N1c1ccc(OC(F)(F)F)cc1 [Compound 57, 7′-Bromo-1-(quinolin-5-ylmethyl)-3′-(4-(trifluoromethoxy)phenyl)-1′H-spiro[piperidine-4,2′-quinazolin]-4′(3′H)-one]",< 1000
12,"COC(=O)c1ccc2c(c1)NC1(CN(Cc3ccccc3)C1)N(c1ccc(OC)cc1)C2=O [Compound 35, Methyl 1-benzyl-3′-(4-methoxyphenyl)-4′-oxo-3′,4′-dihydro-1′H-spiro[azetidine-3,2′-quinazoline]-7′-carboxylate]",< 1000
13,"COc1ccc(N2C(=O)c3ccccc3NC23CN(Cc2c(F)cccc2F)C3)cc1 [Compound 95, 1-(2,6-Difluorobenzyl)-3′-(4-methoxyphenyl)-1′H-spiro[azetidine-3,2′-quinazolin]-4′(3′H)-one]",1000 to 10000
14,"COc1ccc(N2C(=O)c3ccccc3NC23CN(Cc2cccc4ccccc24)C3)cc1 [Compound 86, 3′-(4-Methoxyphenyl)-1-(naphthalen-1-ylmethyl)-1′H-spiro[azetidine-3,2′-quinazolin]-4′(3′H)-one]",1000 to 10000
15,"COc1ccc(N2C(=O)c3ccccc3NC23CN(Cc2ccccc2)C3)cc1 [Compound 92, 1-Benzyl-3′-(4-methoxyphenyl)-1′H-spiro[azetidine-3,2′-quinazolin]-4′(3′H)-one]",1000 to 10000
16,"O=C1c2ccc(Br)cc2NC2(CCN(Cc3ccccc3)CC2)N1c1ccc(Cl)cc1 [Compound 71, 1-Benzyl-7′-bromo-3′-(4-chlorophenyl)-1′H-spiro[piperidine-4,2′-quinazolin]-4′(3′H)-one]",1000 to 10000
17,"O=C1c2ccc(-c3ccco3)cc2NC2(CCN(Cc3ccc(F)c(F)c3)CC2)N1c1ccc(OC(F)(F)F)cc1 [Compound 6, 1-(3,4-Difluorobenzyl)-7′-(furan-2-yl)-3′-(4-(trifluoromethoxy)phenyl)-1′H-spiro[piperidine-4,2′-quinazolin]-4′(3′H)-one]",< 1000
18,"COc1ccc(N2C(=O)c3ccc(C(=O)OC(C)C)cc3NC23CCN(Cc2ccc(F)c(F)c2)CC3)cc1 [Compound 3, Isopropyl 1-(3,4-difluorobenzyl)-3′-(4-methoxyphenyl)-4′-oxo-3′,4′-dihydro-1′H-spiro[piperidine-4,2′-quinazoline]-7′-carboxylate]",< 1000
19,"COc1ccc(N2C(=O)c3ccccc3NC23CCN(Cc2cc(Cl)ccc2Cl)CC3)cc1 [Compound 13, 1-(2,5-Dichlorobenzyl)-3′-(4-methoxyphenyl)-1′H-spiro[piperidine-4,2′-quinazolin]-4′(3′H)-one]",< 1000
20,"CCOC(=O)c1ccc2c(c1)NC1(CN(C(C)c3ccccc3Cl)C1)N(c1ccc(OC(F)(F)F)cc1)C2=O (stereo not drawn) [Compound 30, Ethyl 1-(1-(2-chlorophenyl)ethyl)-4′-oxo-3′-(4-(trifluoromethoxy)phenyl)-3′,4′-dihydro-1′H-spiro[azetidine-3,2′-quinazoline]-7′-carboxylate]",< 1000
21,"O=C(Nc1ccc(OC(F)(F)F)cc1)c1ccc(Br)cc1O [Compound 125, 4-Bromo-2-hydroxy-N-(4-trifluoromethoxy-phenyl)-benzamide]",< 1000
22,"COCCOc1ccc(N2C(=O)c3ccc(F)cc3NC23CN(Cc2ccccc2Cl)C3)cc1 [Compound 124, 1-(2-Chlorobenzyl)-7′-fluoro-3′-(4-(2-methoxyethoxyl)phenyl)-1′H-spiro[azetidine-3,2′-quinazolin]-4′(3′H)-one]",1000 to 10000
23,"COc1ccc(N2C(=O)c3ccccc3NC23CCN(Cc2ccccc2C)CC3)cc1 [Compound 109, 3′-(4-Methoxyphenyl)-1-(2-methylbenzyl)-1′H-spiro[piperidine-4,2′-quinazolin]-4′(3′H)-one]",1000 to 10000

# From patent US9708321B2, “Spiro-quinazolinone derivatives and their use as positive allosteric modulators of mGluR4” (Merck Patent GmbH, priority 2013, dated 2017)
